Experimental data published in patent publication US20240325477A1, “PROTEIN HYDROLYSATE OF MORINGA PEREGRINA SEED CAKE FOR ITS APPLICATION AS A MEDICAMENT, PROCESS FOR OBTAINING SAME AND PHARMACEUTICAL AND DERMATOLOGICAL COMPOSITIONS” (AGENCE FRANCAISE POUR LE DEVELOPPEMENT D'AL ULA, priority 2020, published 2024).
In brackets after ≈: the same amount, converted by molar mass. Read-outs that look alike come from different tables or passages of the source. One block for each compound: values may come before it. The star is where a group is joined. Decanoyl = CCCCCCCCCC(=O)*; CH2Cl = ClC*

Assays:
recombinant human furin = recombinant human furin (Homo sapiens, UniProt P09958); experiment: Furin convertase activity, cleavage of fluorescent substrate; format: biochemical; details: 100 nM
Protocol: Protocol: The study was carried out using a recombinant human furin, which catalyzes cleavage of a specific fluorescent reference substrate.
100 nM decanoyl-Arg-Val-Lys-Arg-CMK was used as a reference inhibitor for the activity of furin.
The furin was pre-incubated for 10 minutes at ambient temperature in the absence (control) or in the presence of a reference product, or of increasing concentrations of the test compound:
“Peregrina protein hydrolysate”; 0.02; 0.2 and 2% (v/v).
At the end of the pre-incubation step, a furin substrate was added and the experimental conditions were incubated once again at ambient temperature away from light for 5 minutes. All of the experiments were carried out in triplicate. […]
Cleavage of the fluorescent furin substrate was monitored for 5 minutes after addition of the substrate by reading the fluorescence at 485 nm/535 nm. […]
Evaluation protocol: Cleavage of the fluorescent furin substrate was monitored for 5 minutes after addition of the substrate by recording the fluorescence at 485 nm/535 nm. […]. […] The statistical significance of the difference observed between the “Control” and “Reference product” groups was evaluated by a Student test (p<0.001). The statistical significance of the difference observed between the “Control” and “Test compound” groups was evaluated by a one-way ANOVA, followed by a Holm-Sidak test (p<0.05). […]

DKK-1 = DKK-1 synthesis and release by normal human fibroblasts, ELISA, 48 h; format: cell-based; details: 100 nM
Protocol: The aim of this study is to evaluate the effect of the peregrina protein hydrolysate on the synthesis and release of DKK-1 in a model compound of normal human fibroblasts in a monolayer culture.
Protocol: Human fibroblast cells were obtained from a donor. In order to carry out the experiments, the fibroblasts were cultured in a monolayer to confluence. 100 nM dexamethasone was used as a reference inducer for the synthesis and release of DKK-1. The […] were incubated for 48 hours in the absence (control) or in the presence of the reference product or of the test product: “peregrina protein hydrolysate”: 0.01%; 0.1% and 0.5% (v/v).
At the end of the incubation, the incubation media were removed in order to carry out the DKK-1 liberation method. […]
At the end of the incubation period of 48 hours, the DKK-1 liberated into the incubation medium was quantified with the aid of a sensitive and specific ELISA kit.
At the end of the incubation period, the proteins contained in the cell lysates were quantified with the aid of a spectrocolorimetric method (Bradford method). […]
The level of significance between the “control” and the “reference product” was evaluated with the aid of a Student test (p<0.05).
The level of significance between the “Control” and the “test product” was evaluated by a single factor analysis of variance (one-way ANOVA) followed by a Holm-Sidak test (p<0.05).

[1] = system: mouse embryo fibroblasts Balb/c 3T3 clone 31; experiment: In vitro 3T3 NRU phototoxicity test; format: cell-based; details: BALB/c3T3, light or radiation study, read-out: Cl50 (the source's name)
Excerpt: The principle of the test is the comparison of the cytotoxicity of the protein hydrolysate in accordance with Example 1 in the presence and in the absence of a non-cytotoxic dose of UVA, on cells under culture. […] The cells used were mouse embryo fibroblasts from the Balb/c 3T3 clone 31 (ATCC-CCL163) line. The positive control was a solution of chlorpromazine (CAS number: 69-09-0). The negative control was a diluent for the test and reference extract (buffered saline solution+/−1% solvent). […] The fibroblasts were trypsinized and two 96-well culture plates were inoculated in an amount of 100 μL of a 2×10^5 cells/mL (i.e. 2×10^6 cells per well) cell suspension in complete culture medium. The inoculated plates were incubated in an oven for 24 hours at 37° C., 5% CO2. At the end of the incubation, semi-confluence of the cell mat was verified. […] The spectral irradiation of the test device was measured in the wavelength range 250 to 700 nanometers with a calibrated spectroradiometer.
One of the 2 plates was irradiated with its cover at ambient temperature, and the other plate was protected from UVA and stored at ambient temperature for the irradiation period. […] The next day, the cell viability (growth, morphology, integrity of the monolayer) was evaluated by observations using a phase contrast microscope. […] The absorbances were measured at 450 nm.

recombinant human furin, sequence (P09958 108-794): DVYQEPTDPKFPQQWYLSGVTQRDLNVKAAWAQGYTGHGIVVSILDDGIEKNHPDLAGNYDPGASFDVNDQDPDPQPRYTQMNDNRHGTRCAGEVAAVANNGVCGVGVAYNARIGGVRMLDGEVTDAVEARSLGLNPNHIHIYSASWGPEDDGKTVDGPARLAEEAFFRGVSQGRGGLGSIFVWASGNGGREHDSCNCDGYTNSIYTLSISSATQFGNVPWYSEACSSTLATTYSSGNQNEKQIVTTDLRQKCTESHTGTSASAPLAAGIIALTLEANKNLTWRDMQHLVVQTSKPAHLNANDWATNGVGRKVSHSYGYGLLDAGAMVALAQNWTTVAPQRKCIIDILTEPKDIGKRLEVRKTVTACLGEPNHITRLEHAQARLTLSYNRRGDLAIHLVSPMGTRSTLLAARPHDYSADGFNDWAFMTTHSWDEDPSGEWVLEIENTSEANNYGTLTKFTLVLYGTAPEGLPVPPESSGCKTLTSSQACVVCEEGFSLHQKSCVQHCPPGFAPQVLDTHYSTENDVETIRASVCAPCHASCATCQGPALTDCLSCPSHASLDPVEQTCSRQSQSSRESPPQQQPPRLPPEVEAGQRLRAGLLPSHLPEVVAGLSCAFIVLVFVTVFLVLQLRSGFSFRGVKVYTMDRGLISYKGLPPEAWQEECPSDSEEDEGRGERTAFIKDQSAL

- Inhibition of the activity of furin (recombinant human furin): 97.9%
Compound: decanoyl-Arg-Val-Lys-Arg-CMK (Decanoyl-RVKR-CH2Cl)

Compound: C[C@@H]1C[C@H]2[C@@H]3CCC4=CC(=O)C=C[C@]4(C)[C@@]3(F)[C@@H](O)C[C@]2(C)[C@@]1(O)C(=O)CO [Dexamethasone, dexamethasone]
- Increase of the DKK-1 liberated compared with the Control (DKK-1): 181.8%

Compound: CN(C)CCCN1c2ccccc2Sc2ccc(Cl)cc21 [Chlorpromazine, chlorpromazine]
- IC50 ([1]; in the absence of UVA): 7 to 90 µg/mL (≈ 22 to 282 µM)
- IC50 ([1]; in the presence of UVA): 0.1 to 2 µg/mL
